According to patent publication US11447533B2, “Antimicrobial and anticancer peptides and conjugates and compositions, methods, articles and kits relating thereto” (George Mason Research Foundation, Inc., priority 2018, dated 2022):

Legend:
[1] = tested on: E. coli ML35p outer membrane; assay: NPN assay, outer membrane perturbation; type: cell-based, Escherichia coli; conditions: 25 μM peptide, 25 μM PMB = 100%
Description: (§1) Interactions with Bacterial Membranes. Interaction of the peptides with bacterial membranes in different phosphate buffers were evaluated using E. coli ML35p, constructed in our laboratory. At first, competent cells of E. coli ML35 were produced by conventional competent cell preparation method, then transformed with pBR322 plasmid. Transformed colonies were selected after growing on Luria-agar containing 50 μg/mL ampicillin. A single transformed colony was grown in presence of ampicillin first in Luria broth and then in MHBII and stored as 20% glycerol stock at −80° C. This frozen stock, on the day of the experiment, was thawed and grown in MHBII containing ampicillin up to OD600 nm=0.8-0.9, washed with PBS and then suspended in the respective buffer up to the required OD600 nm for use.
NPN Assay. The outer membrane perturbation of bacteria was evaluated by incubating E. coli ML35p with peptides in presence of NPN. 100 mM NPN in acetone was supplemented proportionately to a bacterial suspension of OD600 nm˜0.5 to achieve a final concentration of 20 μM of NPN and the mixture was equilibrated for 30 mins. Then, 90 μL of the bacterial suspension containing 20 μM NPN was added with 10 μL of 250 μM peptide (10×) solution in water and scanned for fluorescence intensity (excitation=350 nm, emission=420 nm). The % Perturbation was calculated by considering PMB to be causing 100% Perturbation and water (without peptide) as 0% Perturbation. Each peptide was tested in triplicate in each of the three phosphate buffers used.
When peptides partition from the bulk aqueous environment to the cellular membranes, they may cause small defects in the membrane organization, a signature of adsorption of the peptides into the membranes. Such small defects are called membrane perturbations and can be evaluated by utilizing molecular probes. One such molecular probe is NPN, which is a hydrophobic molecule and is usually repelled to enter the hydrophobic interiors of the membrane by the polar headgroups of membrane-lipids. However, when small defects and gaps are caused during the adsorption of the peptides into the membranes, NPN can enter through those defects and in the hydrophobic environment of the membrane interior the molecule fluoresces, which can be measured for quantification of the extent of membrane-perturbation and peptide adsorption in the cellular membrane.

[2] = tested on: E. coli ML35p outer membrane; assay: Outer membrane disruption (β-lactamase leakage, nitrocefin); type: cell-based, Escherichia coli; conditions: for time to reach maximum signal for nitrocefin hydrolysis / outer membrane disruption (β-lactamase activity) relative to HCMAB: DPBS
Description: as §1
Membrane Disruptions. The outer and the inner membrane disruptions by the peptides were evaluated by incubating bacterial suspension with peptides and then measuring the activity of enzymes leaked out of the cells. 100 μL of 10× concentration of peptide in water was incubated with 900 μL bacterial suspension (OD600 nm˜0.1) in respective buffer for 3 hours at room temperature with gentle rotation. Then the cells and debris were separated by centrifugation (10000 r.p.m. for 30 mins) and the supernatant was collected and tested for activity of enzymes that had leaked out of the bacterial cells. HCMAB was used as a positive control to cause 100% membrane disruption and water as a negative causing 0% disruption.
The outer membrane disruption was tested by using the activity of beta-lactamase present in the periplasmic space of E. coli ML35p. Peptides when disrupt the outer membrane enough to cause beta-lactamase to come out, the degree of disruption can be measured by the virtue of the kinetics of the enzyme and using a chromogenic cephalosporin substrate called nitrocefin. β-lactamase mediated hydrolyzed product of nitrocefin has an absorbance αmax=486 nm. Supernatant collected from the incubation of peptide with bacteria was added with nitrocefin solution in DPBS and incubated at 35° C. and continuous absorbance readings. The slope of the linear section of the absorbance curve (absorbance vs time), was used as a measure of membrane disruption and the % Disruption was calculated as: Equation 7: […]
Some of the ATRA1-variants were further tested for their ability to disrupt outer and inner membranes to form pores or disruptions sufficiently large so as to allow enzymes to leak out of their cellular compartments (cytoplasm or periplasmic space). For this purpose, two reporter molecules were used with one being the substrate of a cytoplasmic enzyme and the other was a substrate for an enzyme residing in the periplasmic space. One of the reporters, nitrocefin was the substrate for β-lactamase, which is present in the bacterial periplasm, whereas the other molecule, ONPG, was the substrate for β-galactosidase, which resides in the cytoplasm of E. coli ML35p strain. […] Similarly, β-galactosidase activity in the supernatants is evidence of inner membrane disruption and possible pore formation. When the aforesaid supernatants were tested for nitrocefin and ONPG hydrolysis, the corresponding absorbance increased with time (data not shown) indicating β-lactamase and β-galactosidase activity, respectively, and thus disruption of both the inner and outer membranes. The slopes of the increase in absorbance as a function of time provides the rate of enzyme activity. The enzyme activities in supernatants collected after incubation of bacteria with the quaternary ammonium surfactant, hexadecyltrimethylammonium bromide (HCMAB) was used as an internal reference for 100% membrane disruption. Enzyme activity for supernatants collected for cells incubated in the absence of peptide provided a reference for 0% membrane disruption. Bee venom peptide melittin was used as a positive control. […]

Sequence	membrane perturbation with respect to PMB ([1]; DPBS)	membrane perturbation with respect to PMB ([1]; PBS)	time to reach maximum signal for nitrocefin hydrolysis [2]	outer membrane disruption (β-lactamase activity) relative to HCMAB ([2]; HCMAB = 100%)	other results
KRFKKFFKKLK (SEQ ID NO: 2) [ATRA1, first 11 residues of NA-CATH]	less than 50%	perturbed comparable to PMB			outer membrane disruption relative to HCMAB ([2]; 10 mM phosphate buffer, HCMAB = 100%): higher degree of disruption than ATRA1-R3W2
RRFRRFFRRLR (SEQ ID NO: 10) [ATRA1-R6]	higher OM perturbation than ATRA1	decreased slightly	approximately 30 mins		
KRAKKFFKRLK (SEQ ID NO: 6) [ATRA1-AR]		decreased slightly			
RRFKRFFKRLK (SEQ ID NO: 9) [ATRA1-R3]	higher OM perturbation than ATRA1			in between those observed for ATRA1 and ATRA1-F	
KRFKKFFKKLKNSVKKRAKKFFKKPK (SEQ ID NO: 53) [NA-CATH26, first 26 residues of NA-CATH]		perturbed outer membrane greater than PMB		significantly lower degrees of β-lactamase leakage	membrane perturbation with respect to PMB ([1]; 10 mM phosphate buffer): higher degree of membrane perturbations than PMB
KRFKKFFKKLKGGVIGVTFPF (SEQ ID NO: 38) [ATRA1-HYD, ATRA1 with hydrophobic tail of NA-CATH joined at the C-terminus by a short -GG- segment]	~75%				
KRWKKWWKKWK (SEQ ID NO: 14) [ATRA1-W4]	higher OM perturbation than ATRA1		approximately 30 mins		
RRWKRFFKRWKGGVIGVTFPF (SEQ ID NO: 50) [ATRA1-R3W2-HYD, ATRA1-R3W2 with hydrophobic tail of NA-CATH joined by -GG-]	~100%	comparable to PMB		160%	membrane perturbation with respect to PMB ([1]; 10 mM phosphate buffer): 75%
KRAKKFFKKLK (SEQ ID NO: 4) [ATRA1-A]	less effective at perturbing the outer membrane than ATRA-1				
RRWKRFFKRWK (SEQ ID NO: 15) [ATRA1-R3W2]	higher OM perturbation than ATRA1	perturbed comparable to PMB	approximately 30 mins	Higher outer membrane disruption	membrane perturbation with respect to PMB ([1]; DPBS, listed as ATRA-R3W2): ~65%; outer membrane disruption (β-lactamase activity) relative to HCMAB ([2]; HCMAB = 100%, listed as ATRA-R3W2): approximately 4%
